# Measured values as given in patent US20050261194A1, “Use of thymulin-like peptides for making pain-relieving medicines” (priority 2001, published 2005).
# Assays:
# Format in all cases: in vivo, rat
# IL-6 = IL-6 in hind paw skin after intraplantar ET (ELISA)
# Description: (§1) These experiments required tissue sampling. The animals were sacrificed by anesthesia (sodium penthiobarbital, 50 mg/kg) and the skin of the hind paws is sampled either at 1 h (for the determination of the TNFα) or at 4 h (for the determination of IL-1β, IL-6 and NGF) after the endotoxin injection.
# (§2) These tissue samples are weighed and then quick frozen and stored at −70° C. with a view of proceeding with the evaluation of IL-1β, TNFα, IL-6 and NGF.
# (§3) In another series of experiments, the tissues are taken as described above using different groups of rats; the one group being pretreated with TAP 30 minutes before injection of ET and the other group having been injected with TAP only.
# (§4) The tissues are homogenized in a phosphate buffer solution (PBS, pH=7.4), containing 0.4 M of NaCl, 0.05% of Tween-20®, 0.5% bovine serum albumin (BSA), 0.1 mM of phenylmethylsulfonyl fluoride, 0.1 mM of benzethonium chloride, 10 mM of EDTA and 20 KI/mL of aprotinin.
# The mixture is then centrifuged at 1,200 g for 60 minutes at 4° C. The cytokines and the NFG contained in the supernatant were measured using ELIZA assays. […]
# NGF = NGF in hind paw skin after intraplantar ET (immunological kit)
# Description: as §1, §2, §3, §4
# The mixture is then centrifuged at 1,200 g for 60 minutes at 4° C. The cytokines and the NFG contained in the supernatant were measured using ELIZA assays.
# The NGF is measure with the aid of an immunological kit (Promega) by following the recommended instructions of the manufacturer. […]
# rats [1] = assay: Fever (rectal temperature) induced by intraperitoneal ET; settings: TAP 25 μg i.p. before ET 50 μg i.p.; rectal temperature 1, 3, 6 h; FIG. 4C
# Description: Protocol 2(b): Different groups of rats (n=5 in each group) were treated in the following fashion • either they received one intraperitoneal injection of 50 μg of ET, • or they were pretreated with the TAP peptide (25 μg, intraperitoneal injection), 30 minutes before an injection of endotoxin.
# Rectal temperature was measured at 1 hour, 3 hours and 6 hours.
# A control group received an intraperitoneal injection of TAP peptide (25 μg dissolved in 100 μl of saline solution).
# rats [2] = assay: SNI (spared nerve injury) mononeuropathy: allodynia and hyperpathy
# Description: Adult male Sprague-Dawley rats (250-300 g) were used for these trials. Over the period of the experiments, the rats were placed under standard conditions (4 to 5 individuals to a cage, 12 hour day/night cycle, 22.2° C.), with free access to water and food. The necessary surgical procedures were done under deep anesthesia using ketamine (Ketalar®, 40-50 mg/kg, intraperitoneal injection), preceded by pre-anesthesia using chlorpromazine (8 mg/kg, idem) and atropine (0.05 mg/kg, idem).
# Mononeuropathy was induced in different groups of rats (n=6 rats in each group) according to the CCI (chronic constriction injury, chronic nerve constriction, Bennet G. J. et Xie Y. K., 1988, A peripheral mononeuropathy in rat that produces disorders of pain sensation like those seen in man, Pain, 33:87-107) or according to the SNI (spared nerve injury, spared nerve of the enervated paw, Decosterd I. et Woolf C. J., 2000, Spared nerve injury: an animal model of persistent peripheral neuropathic pain, Pain, 87:149-158). The sciatic nerve was exposed after dissection of the posterior hip and by incision through the skin and the fatty layer covering the popliteal fossa. For the CCI model, four loose ligatures (chromed catgut 4.0) were placed on the proximal side of the sciatic trifurcation. For the SNI model, the external popliteal sciatic nerve and the internal popliteal sciatic nerve were isolated, tightly ligatured and sectioned, while the sural nerve innervating the lateral aspect of the paw was left intact.
# The rats were placed in individual compartments of one cage, whose floor was made of a metal grating allowing access to the heel pad and to the lateral aspect of the paw with wires.
# For mechanical allodynia, the plantar surface of the hind paws (lateral surface for the SNI model and the median plantar surface for the CCI) was contacted with the von Frey wires (VFF 4.31 and 5.07, Stoelting Co., USA), which corresponded to the forces of 2.041 and 11.749 g (18.5 and 106.7 mN), respectively. […] The number of paw retractions induced by 10 trials was established for each rat on each hind paw prior to (baseline) and after induction of the mono-neuropathy. In normal rats, the low caliber wires (VFF 4.31) and higher caliber (VFF 5.07) induced an average 1.3±0.2 and 2.7±0.3 responses/10 trials, respectively.
# The method described by Choi et al. (1994, Behavioral signs of ongoing pain and cold allodynia in a rat model of neuropathic pain, Pain, 59:369-376) was used for evaluation of cold allodynia. It consists of applying several drops (approximately 50 μl) of an acetone solution on the paw and measuring the duration of the retraction reaction. One half second and 20 seconds are the values chosen arbitrarily for the minimum and maximum threshold, respectively.
# The duration (D) of retraction of the paw (RP) in response to a nociceptive ray of radiant heat oriented towards the plantar surface was established in the normal rat. […] the DRP after induction of the mononeuropathy was considered to be an indication of hyperalgesia. Each rat underwent two RP tests per session a minimum of every five minutes.
# The neuropathic manifestations were at maximum seven to ten days after induction of the neuropathy. The effects of the injections of TAP were tested during this period, which corresponds to the peak of the neuropathy.
# During the experiments done on rats suffering from neuropathy, allodynia and hyperpathy were evaluated in each group of animals with reference to the baseline condition established prior to induction of mononeuropathy. For example, the average of the number of paw withdrawal induced by each VFF was calculated for all of the rats of each group and the variation of this mean has been determined after treatment with TAP at different time periods after the injection. The same method has been followed for allodynia in the code and the hypertrophy relative to heat.
# [3] = TAP 25 μg in control animals, no ET
# [4] = SNI, meloxican 5 mg/kg i.p., morphine 4 mg/kg i.p., at peak of activity 45-60 minutes after injection, FIG. 10
substance,measurement,setting,value
Glu-Ala-lys-Ser-Gln-Gly-Gly-Ser-Asp (SQGGSD; N-terminal Glu-Ala-Lys; printed: Ser-Gln-Gly-Gly-Ser-Asp) [TAP],"change of IL-6 concentration, TAP alone",IL-6; [3],did not induce significant change
same,IL-6 concentration,"IL-6; TAP pretreatment before intraplantar ET, ET alone 2831±285, saline 250.0±50.0, p<0.001",1158±197.0 pg/paw
same,"change of NGF concentration, TAP alone",NGF; [3],did not induce significant change
same,NGF concentration,"NGF; TAP pretreatment before intraplantar ET, ET alone 23.0±1.73, saline 9.11±1.6, p<0.001",16.73±2.70 ng/paw
same,effect on ET-induced increase of body temperature,rats [1],nullified the process of increase of body temperature
same,"reversibility of the effects, time after injection","rats [2]; SNI, TAP 5 μg i.p.",three to four hours
same,time of maximum effect on all of the neuropathic manifestations after injection,"rats [2]; SNI, TAP 5 μg i.p.",75 min
same,dose giving maximal attenuation of the neuropathic manifestations,"rats [2]; SNI, doses 1, 5 and 25 μg compared, FIG. 7",5 μg/rat
same,reduction of tactile allodynia compared with meloxican and morphine,rats [2]; [4],greater reduction
same,reduction of thermal hyperalgesia compared with meloxican and morphine,rats [2]; [4],greater reduction
same,"effect on cold allodynia, SNI model","rats [2]; TAP 5 μg i.p., single injection",only moderately reduced
same,"effect on neuropathic manifestations, SNI model","rats [2]; TAP 5 μg in 100 μl i.p., FIG. 6",significant attenuation
